Results on 4 molecules are retold here after paper PMC11673046, “Characterization of a Pyranose Oxidase/C-Glycoside Oxidase from Microbacterium sp. 3H14, Belonging to the Unexplored Clade II of Actinobacterial POx/CGOx” (Biomolecules, 2024).

What all share (type): biochemical, Microbacterium sp. 3H14
In test [1] the test system is MPOx.
Test [2] addresses MPOx. This is another data set of the same source.
The subject of test [3] is MPOx. The source holds these as a separate data set.

Where two headings read alike, the source gives them in different places.

For the molecule `OC[C@H]1OC(O)[C@H](O)[C@@H](O)[C@@H]1O` (stereo partly drawn) [D-glucose], the Km (in general, the substrate concentration at which the rate is half of its maximum) in the test on MPOx [1] worked out at 660 ± 30 µM.
Same read-out and setting: under `OC1OC[C@@H](O)[C@H](O)[C@H]1O` (stereo partly drawn) [D-xylose] stands 19000 ± 1000 µM.
On to `O=C(CCc1ccc(O)cc1)c1c(O)cc(O)cc1O[C@@H]1O[C@H](CO)[C@@H](O)[C@H](O)[C@H]1O` [Phlorizin], for which the Ki (as a rule, the dissociation constant of the complex between target and ligand, obtained from inhibition or displacement) on MPOx [2] was determined as 480 ± 50 µM. Moreover, in the test with MPOx [3], the Michaelis constant (Km) amounted to 57 ± 6 µM.
For `O=C(CCc1ccc(O)c(O)c1)c1c(O)cc(O)c([C@@H]2O[C@H](CO)[C@@H](O)[C@H](O)[C@H]2O)c1O` [Aspalathin], in that order: 300 ± 50 µM and 85 ± 14 µM.
